Measured values from article PMC12567082, “Silver(I) Complexes Bearing S-Alkyl Thiosalicylic Acid Derivatives: DNA/BSA Binding and Antitumor Activity In Vitro and In Vivo” (Pharmaceutics, 2025).

How the values were obtained:
[1] = system: 4T1 cells; assay: Flow cytometry of apoptosis and proliferation markers; format: cell-based, mouse; conditions: 0.5 µM, 24 h, vs untreated
Method: Flow cytometry was performed on 4T1 cells treated with 0.5 µM of C3 for 24 h or untreated cells. After treatment, cells were incubated with antibodies specific for Bax (Abcam Cambridge, Cambridge, UK), Bcl-2 (Abcam Cambridge, UK), BclXL (Thermo Fisher Scientific, Waltham, MA, USA), MCL-1 (Thermo Fisher Scientific, Waltham, MA, USA) caspase 3 (Abcam Cambridge, UK), Ki-67 (eBioscience, San Diego, CA, USA), cyclin D3 (Abcam Cambridge, UK), p21 (Abcam Cambridge, UK), p16 (Abcam Cambridge, UK), and p27 (Abcam Cambridge, UK) and secondary antibodies as previously described. FACSCalibur Flow Cytometer (BD Biosciences, San Jose, CA, USA) was used for flow cytometry, and the data were analyzed using FlowJo (version 10.7.2; Tree Star Inc. Ashland, OR, USA).

[2] = system: CT-DNA; assay: UV-Vis absorption titration with CT-DNA; format: binding, calf; conditions: ΔG = −RT lnKb
Method: All DNA-binding studies were conducted in 0.01 M phosphate-buffered saline (PBS, pH 7.40) at 25 °C. […] To eliminate absorbance from CT-DNA, identical amounts of DNA were added to both the test and reference solutions prior to spectral recording.
Intrinsic binding constants (Kb) were calculated using the equation to determine the DNA-binding affinities of the complexes (1):[DNA]/(εa − εf) = [DNA]/(εb − εf) + 1 [Kb(εb − εf)](1)
[DNA] represents the concentration of DNA; apparent extinction coefficient, εa, was calculated as the ratio of the observed absorbance to the concentration of the complex (Aobs/[complex]); and εb and εf correspond to the extinction coefficients of the complex in the fully bound and free forms, respectively. Kb was determined from the ratio of the slope to the intercept obtained from the corresponding linear plots.

[3] = system: 4T1 cells; assay: Colony formation assay; format: cell-based, mouse; conditions: 0.5 µM, 14 days
Method: Cancer 4T1 cells were seeded in a six-well plate (500 cells per well) and incubated with C3 (0.5 µM) or DMEM only for 14 days. After fixation, the colonies were stained using crystal violet.

[4] = system: human fibroblast cell lines (MRC-5); assay: MTT assay MRC-5; format: cell-based
Method: Mouse breast cancer (4T1), human breast cancer (MDA-MB-468), mouse colon cancer (CT26), human colon cancer (HCT-116), mouse lung cancer (LLC1), human lung cancer (A549), mouse mesenchymal stem cells (mMSC), and human fibroblast cell lines (MRC-5) were used in this study and were consistently cultured in complete Dulbecco’s Modified Eagle Medium (DMEM) (Sigma-Aldrich, St. Louis, MO, USA) in incubator (5% CO2) under standard conditions. Complete DMEM was Dulbecco’s Modified Eagle Medium supplemented with 10% fetal bovine serum (FBS), 1 mmol/L penicillin–streptomycin, 1 mmol/L mixed nonessential amino acids, and 2 mmol/L L-glutamine (Sigma-Aldrich, St. Louis, MO, USA). All cancer cell lines and MRC-5 cell line were obtained from American Type Culture Collection (ATCC, Manassas, VA, USA), but mMSC was manufactured by Gibco (Middlesex County, MA, USA).
In 96-well microplates, we seeded cancer and non-cancer cells, more exactly 5 × 10^3 cells per well in 100 μL of complete DMEM (Sigma-Aldrich, St. Louis, MO, USA). […] Tested concentration range for all metal-based substances was 3.9–500 μM. After incubation with MTT solution (5 mg/mL; pH 7.2) for 4 h, optical density was determined using Zenyth 3100 microplate multimode detector (Salzburg, Austria). All experiments were performed three times, each in triplicate, and the IC50 values as well as selectivity indexes (IC50 for mMSC or MRC-5/IC50 for mouse or human cancer cells) were calculated.

[5] = system: 4T1 cells; assay: Scratch assay; format: cell-based, mouse; conditions: 0.5 µM, after 12 and 24 h, vs untreated
Method: In order to determine migratory capacity of C3-treated 4T1 cells, scratch assay was performed as previously described. Once 4T1 cells formed a confluent monolayer, an injury was made, and first representative images were taken immediately. Further 4T1 cells were exposed to C3 (0.5 µM) or DMEM only (untreated cells), and observation under inverted optical microscope (Olympus, Tokyo, Japan) was made after 4 h, 12 h, and 24 h. Scratch width was quantified by ImageJ (version 1.54.0 NIH, Madison, WI, USA).

[6] = biological target: T1, BSA (Bos taurus, UniProt P02769); assay: BSA tryptophan fluorescence quenching; format: binding, bovine
T1 construct: purchased Sigma-Aldrich
T1 sequence (P02769 25-607): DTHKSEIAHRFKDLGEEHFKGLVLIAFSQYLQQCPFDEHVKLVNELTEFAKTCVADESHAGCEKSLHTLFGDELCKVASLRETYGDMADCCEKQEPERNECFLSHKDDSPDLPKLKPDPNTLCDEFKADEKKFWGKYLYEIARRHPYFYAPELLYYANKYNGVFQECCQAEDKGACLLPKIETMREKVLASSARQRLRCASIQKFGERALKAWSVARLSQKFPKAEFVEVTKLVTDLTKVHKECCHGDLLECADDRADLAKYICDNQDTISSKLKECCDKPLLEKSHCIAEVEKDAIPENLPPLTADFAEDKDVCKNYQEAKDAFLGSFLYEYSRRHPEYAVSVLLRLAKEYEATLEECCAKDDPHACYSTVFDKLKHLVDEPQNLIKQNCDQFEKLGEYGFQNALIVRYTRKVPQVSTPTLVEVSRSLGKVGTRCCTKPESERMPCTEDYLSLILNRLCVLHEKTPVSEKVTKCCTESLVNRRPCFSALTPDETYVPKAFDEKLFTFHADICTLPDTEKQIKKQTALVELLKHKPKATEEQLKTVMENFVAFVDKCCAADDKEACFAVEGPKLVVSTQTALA
Method: The protein binding study was carried out using tryptophan fluorescence quenching experiments with BSA. […] Fluorescence emission spectra were recorded between 300 and 500 nm, with excitation at 295 nm.
The quenching constant Ksv was determined based on the Stern–Volmer relationship, as described by Equation (3):I0/I = 1 + kqτ0[Q] = 1 + Ksv[Q](3)
In this equation, I0 and I refer to the fluorescence intensities of BSA measured without and with the quencher (complex), τ0 represents the average fluorescence lifetime of free BSA (∼10^−8 s), and [Q] indicates the quencher concentration.
Parameters such as association binding constant (K) and the number of binding sites per albumin (n) were obtained from Scatchard Equation (4):(ΔI/I0)/[Q] = nK − KΔI/I0(4)
To minimize inner filter, both intensities of fluorescence originating from excitation and emission light absorption and re-absorption were corrected by employing Equation (5); Icor and Iobs are the corrected and observed fluorescence intensities, respectively, and Aex and Aem represent the absorbance of the metal complex at the excitation and emission wavelengths, respectively.Icor = Iobs · […]^(Aex + Aem)/2(5)

For `CCCSc1ccccc1C(=O)[O][Ag].CCCSc1ccccc1C(=O)[O][Ag]` [C3, [Ag2(S-propyl-thiosal)2]], the Bax/Bcl-2 ratio [1] was “higher”, the “ΔG (Gibbs free energy)” value [2] was -30.5 kJ/mol and the 4T1 colony formation [3] was “almost total inhibition”. The IC50 ([4]; MRC-5, 24 h) was 38.1 ± 1.13 µM, the IC50 ([4]; MRC-5, 48 h) was 43.3 ± 1.1 µM and the “migration ability of 4T1 cells” value [5] was “significantly reduced”. The “kq (quenching rate constant)” value ([6]; BSA 2 µM) was “(9.6 ± 0.1) × 10^12 M^−1 s^−1”, the “Ksv (Stern–Volmer constant)” value ([6]; BSA 2 µM, λex 295 nm) was “(9.6 ± 0.1) × 10^4 M^−1” and the “K (binding constant)” value ([6]; Scatchard equation) was “(1.1 ± 0.1) × 10^5 M^−1”. For the same compound, the “n (number of binding sites)” value ([6]; Scatchard equation) was 1.1.
